How the values were obtained:
humans = test system: humans; parameters: dose or concentration left out as unconfirmed; conditions: cited from earlier work
mice = conditions: 298 mg/kg (i.p.); cited from earlier work
[1] = test system: lung squamous cell carcinoma in the histopathological stage I; assay: multicenter double blind comparative clinical test, ubenimex preparation vs placebo after complete resection; assay type: in vivo, human
Protocol: With complete resection patients of lung squamous cell carcinoma in the histopathological stage I, a multicenter double blind comparative test using an ubenimex preparation (containing 30 mg ubenimex) and a placebo preparation (a control contentaining no ubenimex) was carried out. The ubenimex preparation or the placebo preparation was administered orally once a day. The dosing period of these preparations was 2 years after surgical resection. The observation period was 5 years or more including the subsequent period of 3 years or more of no administration after the dosing period. The survival time and recurrence-free survival time in the collected 389 cases (189 cases at the stage IA and 200 cases at the stage IB) were compared between the two groups, namely the ubenimex group and the placebo group by the Kaplan-Meier method. Tables 1 and 2 show the results of the statistic analysis by the generalized Wilcoxon test and the Log-Rank test. […] In these tables, the “U group” means the ubenimex-administered group and the “P group” means the placebo-administered group.

[2] = test system: non-small cell lung cancer; conditions: histopathological stages I and II; 90 mg twice weekly for 5 years; 227 cases; cited from earlier work
[3] = test system: lung squamous cell carcinoma; conditions: histopathological stage I; 30 mg daily for one year or longer; 21 cases; with or without tegaful; cited from earlier work
[4] = Stage IA (189 cases), 30 mg orally once a day for 2 years
[5] = Stage IB (200 cases), 30 mg orally once a day for 2 years
[6] = total cases stage I (389 cases), 30 mg orally once a day for 2 years after resection, Kaplan-Meier

## CC(C)C[C@H](NC(=O)[C@@H](O)[C@H](N)Cc1ccccc1)C(=O)O [ubenimex, (−)-N-((2S, 3R)-3-amino-2-hydroxy-4-phenylbutyryl)-L-leucine]
humans
  adverse effects in humans: no specific adverse effects observed
mice
  toxicity in mice: no observed toxicity
[1]; 30 mg orally once a day for 2 years
  incidence of appetite loss (only adverse effect significantly occurring): 2.5%
[1]; [4]
  5-year recurrence-free survival ratio: 73%
  5-year survival ratio (survival time): 84%
[1]; [5]
  5-year recurrence-free survival ratio: 68%
  5-year survival ratio (survival time): 77%
[1]; [6]
  5-year recurrence-free survival ratio: 70%
  5-year survival ratio (survival time): 81%
[2]
  recurrence-free survival time vs non-administered group: favorable trend compared with the non-administered group in terms of recurrence-free survival time but the trend is far from significance
[3]
  survival time vs ubenimex non-administered group: prolonged
